Assay [1] deals with tau. Description: Assay for tau: Western blot of tau isoforms in wild type mES cell-derived pyramidal neurons. The assay is classed as cell-based, mouse. The settings on record: treated at 14 DIV for 48 hr, Western blot (CP13, PHF). Also noted: key: *: asterisk denotes hit compounds. The protocol: In certain embodiments, the inhibitor of the present invention is identified by an assay directed to detecting inhibitors of tau phosporylation. For example, but not by way of limitation, such assays can include assays such as those prepared as follows. First, wild type, mouse embryoinc stem cells are differentiated into pyramidal neurons using the protocol described in Example 1. ES cell-derived neurons are treated at 14 DIV for 48 hr with either vehicle (D, DMSO) or various histone demethylase inhibitors (inhibitor compounds 1-10). Tau isoforms are detected by Western blot analysis of the cell lysates using the indicated antibodies, See FIG. 11. CP13 recognizes tau phosphorylation at ser202/205. PHF recognizes tau phosphorylation at ser396/404. TUJ1 (Neuron-specific class III beta-tubulin) is used as a loading control.
Wild type, mouse embryoinc stem cells were differentiated into pyramidal neurons using the protocol described in Example 1. ES cell-derived neurons were treated at 14 DIV for 48 hr with either vehicle (D, DMSO) or various histone demethylase inhibitors (inhibitor compounds 1-10). Tau isoforms were detected by Western blot analysis of the cell lysates using the indicated antibodies, See FIG. 11. CP13 recognizes tau phosphorylation at ser202/205. PHF recognizes tau phosphorylation at ser396/404. TUJ1 (Neuron-specific class III beta-tubulin) is used as a loading control.
List of inhibitor compounds tested for their ability to inhibit levels of total tau, disease-associated phosphorylated or presence of modified forms of tau include (asterisk denotes hit compounds): *1. pargyline (LSD1 inhibitor)—1000 uM; *2. deprenyl (LSD1 inhibitor)—1000 uM; *3. propargyl (LSD1 inhibitor)—100 uM; 4. phenelzine (LSD1 inhibitor)—100 uM; 5. tranylcyprmine (LSD1 inhibitor)—200 uM; *6. S2101 (LSD1 Inhibitor II, EMD Biosciences catalog #489477)—LSD1 inhibitor—1 uM; 7. N-oxyalylglycine (NOG) (JMJD2s inhibitor)—1000 uM; *8. pyradine (JMJ2A and E inhibitor)—1000 uM; *9. disulfiram (JMJ2A inhibitor)—20 uM; *10. ebselen (JMJ2A inhibitor)—20 uM.

Assay [2] concerns Aβ40. As to the kind of experiment: Screen of NIH clinical collection compounds for reduction of Aβ40 in Tg2576 mES cell derived neurons (Aβ40 ELISA). Format: cell-based, mouse. The settings on record: for Percent Inhibition: Aβ40 in conditioned media vs DMSO control, neurons treated on day 8 after plating for 24 hours. The arrangement: Percent Inhibition: concentration or dose not given beside the values. Here is the method:
In certain embodiments, the inhibitor of the present invention is identified by an assay directed to detecting inhibitors of Aβ40 production. For example, but not by way of limitation, such assays can include assays such as those prepared as follows. First, mouse ES cells isolated from Tg2576 mice are subjected to directed differentiation as previously described. After dissociation of embryoid bodies, neurons are plated in poly-D-lysine and laminin coated 96 well black plates at a density of 1.5×10^5 cells/cm2 which is 45,000 cells/well. Media is changed to N2 containing media after 4 hours and again the next day after plating. Two days after plating, media is changed to B27 containing media which is replaced every 2 days after that. On day 8 after plating the mouse ES derived neurons are treated with the compound of interest. […] In certain embodiments the compounds are incubated with the cells for 24 hours in 150 μl B27 media. In certain embodiments each plate of ES derived neurons is treated with NCC compounds, DMSO (negative control), and the positive controls for Aβ reduction BACE inhibitor IV (Calbiochem) and Compound E. After 24 hours, 100 μl conditioned media can then be removed and frozen at −80° C. until further analysis for Aβ40 content. The remaining cells in 50 μl media can be subjected to cell viability assay CellQuanti Blue (BioAssay Systems). In certain embodiments, conditioned media can be subjected to Aβ40 quantification, e.g., by using Aβ40 ELISA (Invitrogen).
Mouse ES cells isolated from. Tg2576 mice were subjected to directed differentiation as previously described. After dissociation of embryoid bodies, neurons were plated in poly-D-lysine and laminin coated 96 well black plates at a density of 1.5×10^5 cells/cm2 which is 45,000 cells/well. Media was changed to N2 containing media after 4 hours and again the next day after plating. Two days after plating, media was changed to B27 containing media which was replaced every 2 days after that. […] Each plate of ES derived neurons was treated with NCC compounds, DMSO (negative control), and the positive controls for Aβ reduction BACE inhibitor IV (Calbiochem) and Compound E. After 24 hours, 100 μl conditioned media was removed and frozen at −80° C. until further analysis for Aβ40 content. The remaining cells in 50 μl media were subjected to cell viability assay CellQuanti Blue (BioAssay Systems). Conditioned media was subjected to Aβ40 quantification using Aβ40 ELISA (Invitrogen). Compounds which lowered Aβ40 levels in the conditioned media were identified as hits if they reduced Aβ40 by 4 standard deviations of the negative control (DMSO) but maintained cell viability. Cell viability was defined by CellQuanti Blue fluorescent signal maintained within two standard deviations of fluorescent signal from the control treated (DMSO) cells. High potency hits were defined by reducing Aβ40 40% or more (signal 60% of DMSO control).
Hits were defined as lowering Aβ by 4 standard deviations below the negative control (DMSO) treated condition but maintaining cell viability within 2 standard deviations of control.
On the technique in general: An ELISA detects its analyte on a solid surface through an enzyme-linked reagent.

These results are taken from patent US9696306B2, “Methods of reducing levels of tau” (The Trustees of Columbia University in the City of New York, priority 2011, dated 2017).

pIC50: −log10 of the molar value.

In general, pIC50 refers to −log10 of the IC50, conventionally taken in molar units.

`NC1CC1c1cc(F)cc(F)c1OCc1ccccc1` (centres unmarked) [S2101]: the “ability to inhibit levels of total tau, disease-associated phosphorylated or presence of modified forms of tau” value (shortened to “ability to inhibit levels of total tau”) in assay [1] (1 uM) is given as “*”. With `C#CCN(C)Cc1ccccc1` [pargyline], in assay [1] (1000 uM), the “ability to inhibit levels of total tau” value is given as “*”.

As to `CN1C2CC(OC(=O)C(CO)c3ccccc3)CC1C1OC12` (stereo not drawn) [benzeneacetic acid, alpha-(hydroxymethyl)-, 9-methyl-3-oxa-9-azatricyclo[3,3,1,2,4]non-7-yl ester], in assay [2], the “Percent Inhibition” value came out at 67%. With `Cl.Nc1c2c(nc3c1CCC3)CCCC2` [amiridine, cyclopenta[b]quinolin-9-amine, 2,3,5,6,7,8-hexahydro-,monohydrochloride], the “Percent Inhibition” value in assay [2] was found to be 40%. Also, the negative logarithm of the IC50 (pIC50) in assay [2] (Aβ40 lowering, high priority hits confirmed from independent compound sources, read-out: IC50) is 5.64. Regarding `O=c1c2ccccc2[se]n1-c1ccccc1` [ebselen], in assay [1] (20 uM), the “ability to inhibit levels of total tau” value is reported as “*”. Consider `O=[N+]([O-])c1cccc2cn[nH]c12` [7-nitroindazole], for which the “Percent Inhibition” value in assay [2] is 17%. Still for that read-out and setting: the same measure for `C[C@@H]1C[C@H]2[C@@H]3C[C@H](F)C4=CC(=O)C(Cl)=C[C@]4(C)[C@@]3(F)[C@@H](O)C[C@]2(C)[C@@]1(O)C(=O)CO` [halometasone]: 14%. Still for that read-out and setting: for medroxyprogesterone the value was 20%. Take `C#CCN(C)[C@H](C)Cc1ccccc1` [deprenyl]: in assay [1] (1000 uM), the “ability to inhibit levels of total tau” value is given as “*”. With `Oc1ccc2c3c1O[C@H]1c4[nH]c5ccccc5c4C[C@@]4(O)[C@@H](C2)N(CC2CC2)CC[C@]314` [naltrindole], in assay [2], the “Percent Inhibition” value stood at 66%. On the same count and under the same terms, for `C[N+]1(C)CCN(c2ccccc2)CC1.[I-]` [1,1,-dimethyl-4-phenylpiperazinium iodide] the value was 9%; for `C=CC1=C(C(=O)O)N2C(=O)[C@@H](NC(=O)/C(=N\OCC(=O)O)c3csc(N)n3)[C@H]2SC1` [cefixime], 19%. In the case of `CCN(CC)C(=S)SSC(=S)N(CC)CC` [disulfiram], in assay [1] (20 uM), the “ability to inhibit levels of total tau” value is listed as “*”. `CN(C)CCc1c[nH]c2ccc(Cn3cncn3)cc12` [rizatriptan benzoate]: in assay [2], the “Percent Inhibition” value is 10%.

Regarding `COc1cc(CNC(=O)CCCC/C=C/C(C)C)ccc1O` [capsaicin], in assay [2], the “Percent Inhibition” value was 62%. The same measure, in the same setting: for `CC(=O)O[C@]1(C(C)=O)CC[C@H]2[C@@H]3C=C(C)C4=CC(=O)CC[C@]4(C)[C@H]3CC[C@@]21C` [megestrol acetate] the value was 20%.
